Measured values published in paper PMC8402619 (Viruses, 2021).

What was measured:
OAT1 = target: T1, OAT1 (Homo sapiens, UniProt Q4U2R8); assay: Islatravir uptake as substrate, MDCKII vs MDCKII-OAT1 cells; type: in vitro ADME
T1 construct: expressed in transfected cells; host or cells: MDCKII
T1 sequence (Q4U2R8 1-563): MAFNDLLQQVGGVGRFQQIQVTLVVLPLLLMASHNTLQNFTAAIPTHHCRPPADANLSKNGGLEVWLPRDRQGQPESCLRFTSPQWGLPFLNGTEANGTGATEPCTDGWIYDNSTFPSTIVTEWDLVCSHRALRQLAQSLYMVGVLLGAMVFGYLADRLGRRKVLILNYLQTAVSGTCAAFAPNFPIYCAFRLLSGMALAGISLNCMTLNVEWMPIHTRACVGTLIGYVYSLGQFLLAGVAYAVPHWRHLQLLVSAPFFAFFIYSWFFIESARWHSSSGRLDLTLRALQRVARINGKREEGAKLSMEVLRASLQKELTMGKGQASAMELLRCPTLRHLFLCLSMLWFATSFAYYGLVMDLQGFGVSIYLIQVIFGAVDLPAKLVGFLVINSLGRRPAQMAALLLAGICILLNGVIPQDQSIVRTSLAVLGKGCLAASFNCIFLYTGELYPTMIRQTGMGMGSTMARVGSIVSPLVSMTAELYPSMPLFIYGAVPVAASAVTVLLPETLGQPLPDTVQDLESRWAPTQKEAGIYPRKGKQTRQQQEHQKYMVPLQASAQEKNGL

[1] = Metabolism in cryopreserved human hepatocyte incubations; type: in vitro ADME
CYP2B6 = target: T2, CYP2B6 (Homo sapiens, UniProt P20813); assay: Time-dependent CYP inhibition in pooled human liver microsomes; type: in vitro ADME
T2 sequence (P20813 1-491): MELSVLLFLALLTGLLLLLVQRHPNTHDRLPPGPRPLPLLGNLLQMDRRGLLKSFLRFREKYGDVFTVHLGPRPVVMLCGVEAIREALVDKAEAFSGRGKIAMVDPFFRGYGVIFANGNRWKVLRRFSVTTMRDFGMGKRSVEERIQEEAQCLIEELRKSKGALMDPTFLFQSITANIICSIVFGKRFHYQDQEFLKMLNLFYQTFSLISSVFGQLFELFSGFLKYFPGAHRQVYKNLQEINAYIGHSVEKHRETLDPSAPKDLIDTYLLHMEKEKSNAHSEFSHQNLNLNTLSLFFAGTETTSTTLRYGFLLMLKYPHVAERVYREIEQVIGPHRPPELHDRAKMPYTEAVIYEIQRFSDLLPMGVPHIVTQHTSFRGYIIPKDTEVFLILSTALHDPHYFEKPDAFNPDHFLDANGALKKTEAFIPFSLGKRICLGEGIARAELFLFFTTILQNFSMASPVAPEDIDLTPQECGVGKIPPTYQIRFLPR

UGT1A1 = target: T3, UGT1A1 (Homo sapiens, UniProt P22309); type: in vitro ADME
T3 sequence (P22309 26-533): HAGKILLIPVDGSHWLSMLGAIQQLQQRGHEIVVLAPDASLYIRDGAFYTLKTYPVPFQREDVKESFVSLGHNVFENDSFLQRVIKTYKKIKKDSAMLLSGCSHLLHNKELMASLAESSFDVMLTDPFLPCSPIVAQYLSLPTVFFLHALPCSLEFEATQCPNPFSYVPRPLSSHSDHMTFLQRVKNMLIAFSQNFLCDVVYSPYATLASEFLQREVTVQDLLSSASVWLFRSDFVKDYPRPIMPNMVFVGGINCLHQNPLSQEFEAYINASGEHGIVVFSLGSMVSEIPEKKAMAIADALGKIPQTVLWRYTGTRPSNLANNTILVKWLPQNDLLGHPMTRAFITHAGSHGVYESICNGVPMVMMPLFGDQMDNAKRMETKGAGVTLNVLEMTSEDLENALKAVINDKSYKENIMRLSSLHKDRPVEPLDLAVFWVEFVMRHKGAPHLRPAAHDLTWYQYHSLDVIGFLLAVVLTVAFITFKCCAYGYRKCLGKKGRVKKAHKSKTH

CYP3A4 = CYP3A4 (Homo sapiens, UniProt P08684); assay: Time-dependent CYP inhibition in pooled human liver microsomes; type: in vitro ADME
Sequence of CYP3A4 (P08684 whole entry): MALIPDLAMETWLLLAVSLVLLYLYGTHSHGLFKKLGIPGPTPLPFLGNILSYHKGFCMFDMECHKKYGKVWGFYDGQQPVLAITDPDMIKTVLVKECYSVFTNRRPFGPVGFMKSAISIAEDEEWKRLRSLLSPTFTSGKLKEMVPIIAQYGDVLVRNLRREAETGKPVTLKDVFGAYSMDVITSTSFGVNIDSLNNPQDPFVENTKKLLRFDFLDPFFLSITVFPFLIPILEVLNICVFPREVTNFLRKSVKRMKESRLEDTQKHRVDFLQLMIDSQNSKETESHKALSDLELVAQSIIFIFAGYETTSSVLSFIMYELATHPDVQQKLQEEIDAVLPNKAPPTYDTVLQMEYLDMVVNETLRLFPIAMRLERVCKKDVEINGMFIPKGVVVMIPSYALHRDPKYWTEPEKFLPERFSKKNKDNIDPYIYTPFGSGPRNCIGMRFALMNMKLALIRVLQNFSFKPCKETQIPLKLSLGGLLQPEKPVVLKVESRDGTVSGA

OATP1B3 = target: T4, OATP1B3 (Homo sapiens, UniProt Q9NPD5); assay: Inhibition of transporter-mediated probe uptake in HEK293-OATP1B3 cells; type: in vitro ADME
T4 construct: host or cells: HEK293
T4 sequence (Q9NPD5 1-702): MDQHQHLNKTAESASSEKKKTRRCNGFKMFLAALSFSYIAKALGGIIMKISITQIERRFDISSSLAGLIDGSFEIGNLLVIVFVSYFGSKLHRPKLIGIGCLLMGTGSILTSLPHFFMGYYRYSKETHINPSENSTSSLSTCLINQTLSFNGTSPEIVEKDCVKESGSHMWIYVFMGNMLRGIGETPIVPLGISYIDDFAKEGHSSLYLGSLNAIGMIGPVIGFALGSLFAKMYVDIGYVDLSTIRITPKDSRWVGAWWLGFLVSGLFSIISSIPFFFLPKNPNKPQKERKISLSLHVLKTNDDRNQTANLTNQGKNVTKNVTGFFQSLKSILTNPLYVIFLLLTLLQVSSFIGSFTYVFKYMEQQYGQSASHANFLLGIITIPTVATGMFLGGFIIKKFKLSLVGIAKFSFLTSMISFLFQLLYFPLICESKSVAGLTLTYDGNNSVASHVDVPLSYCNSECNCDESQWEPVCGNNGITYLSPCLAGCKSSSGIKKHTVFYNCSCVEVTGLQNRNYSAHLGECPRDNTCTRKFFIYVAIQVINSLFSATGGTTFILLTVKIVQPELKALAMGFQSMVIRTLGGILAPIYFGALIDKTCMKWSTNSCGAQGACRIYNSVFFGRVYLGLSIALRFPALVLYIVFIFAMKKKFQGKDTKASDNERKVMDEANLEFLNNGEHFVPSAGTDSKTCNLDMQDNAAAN

[2] = Renal clearance after 1 mg/kg intravenous, mouse; type: in vivo, male CD-1 mice; conditions: 1 mg/kg intravenously
CYP2C19 = CYP2C19 (Homo sapiens, UniProt P33261); assay: Time-dependent CYP inhibition in pooled human liver microsomes; type: in vitro ADME
Sequence of CYP2C19 (P33261 whole entry): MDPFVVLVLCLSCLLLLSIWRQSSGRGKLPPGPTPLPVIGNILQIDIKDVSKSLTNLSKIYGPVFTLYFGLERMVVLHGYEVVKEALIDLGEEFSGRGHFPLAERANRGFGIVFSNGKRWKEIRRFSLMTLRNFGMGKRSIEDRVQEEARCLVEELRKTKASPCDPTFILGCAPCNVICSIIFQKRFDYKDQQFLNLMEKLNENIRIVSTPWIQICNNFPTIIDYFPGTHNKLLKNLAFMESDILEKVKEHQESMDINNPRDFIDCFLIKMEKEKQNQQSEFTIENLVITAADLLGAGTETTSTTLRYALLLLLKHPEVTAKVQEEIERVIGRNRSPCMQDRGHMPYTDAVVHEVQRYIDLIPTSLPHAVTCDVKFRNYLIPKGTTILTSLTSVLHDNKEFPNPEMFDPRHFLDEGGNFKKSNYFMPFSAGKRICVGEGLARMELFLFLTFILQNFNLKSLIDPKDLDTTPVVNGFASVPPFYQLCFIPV

C#C[C@]1(CO)O[C@@H](n2cnc3c(N)nc(F)nc32)C[C@@H]1O [Islatravir, 4′-Ethynyl-2-fluoro-2′-deoxyadenosine]
Islatravir Uptake Transporter-Expressing Cells (OAT1; MDCKII-OAT1, 1 µM [3H]islatravir, 5 min, mean ± SD, n = 3): 0.72 ± 0.04 pmole/10^6 Cells
Fold-Difference (OAT1; OAT1, uptake into transporter-expressing cells to control cells, 5 min): 1.04
Islatravir Uptake Control Cells (OAT1; OAT1 row, MDCKII control cells, 1 µM [3H]islatravir, 5 min, mean ± SD, n = 3): 0.69 ± 0.07 pmole/10^6 Cells
Conclusions (OAT1; OAT1 substrate assessment): Non-substrate
metabolites observed [1]: no detectable metabolites
time-dependent inhibition (CYP2B6; CYP2B6, pre-incubation of 10 and 50 µM for up to 30 min): no time-dependent inhibition
DDI Potential (CYP2B6; CYP2B6 time dependent inhibition): Low risk ^h
IC50 (CYP2B6; time dependent, CYP2B6, read-out: Islatravir IC50): > 50 µM
DDI Potential (UGT1A1; UGT1A1 reversible inhibition, FDA, EMA, PMDA guidance): Low risk ^g
Intestinal Concentration (Igut) to Ki,u Ratio (UGT1A1; UGT1A1 reversible, Igut = 60 mg/250 mL = 818 µM): <16.4 µM
IC50 (UGT1A1; reversible, UGT1A1 estradiol 3-glucuronidation, read-out: Islatravir IC50): > 100 µM
time-dependent inhibition (CYP3A4; CYP3A4, pre-incubation of 10 and 50 µM for up to 30 min): no time-dependent inhibition
DDI Potential (CYP3A4; CYP3A4 time dependent inhibition): Low risk ^h
IC50 (CYP3A4; time dependent, CYP3A4, read-out: Islatravir IC50): > 50 µM
IC50 (OATP1B3; OATP1B3-mediated uptake of sulfobromophthalein, read-out: Islatravir IC50): > 300 µM
Maximum Unbound Inlet Concentration (Iin,max,u) to IC50 Ratio (OATP1B3; OATP1B3, 60 mg dose): <0.035
DDI Potential (OATP1B3; OATP1B3 inhibition, FDA, EMA, PMDA guidance): Low risk
Renal Excretion (% Total Plasma Clearance) [2]: 61%
CL renal ([2]; male, CD-1, plasma and urine, iv, urine 0-24 h): 15.4 mL/min/kg
time-dependent inhibition (CYP2C19; CYP2C19, pre-incubation of 10 and 50 µM for up to 30 min): no time-dependent inhibition
DDI Potential (CYP2C19; CYP2C19 time dependent inhibition): Low risk ^h
IC50 (CYP2C19; time dependent, CYP2C19, read-out: Islatravir IC50): > 50 µM
